Here are results for one substance from US12161752B2, “Compositions and methods for the treatment of anterior blepharitis and posterior blepharitis” (priority 2019, dated 2024).

Data set [1] in a line: Clinic based application of topical Ivermectin for the treatment of inflammatory blepharitis. It counts as in vivo. As to the method:
In another embodiment, the pharmaceutical composition is administered periodically. In an embodiment, the pharmaceutical composition is applied daily for 3 days and the treatment is repeated for 3 days again after 2 weeks. In most cases this is sufficient for a significant therapeutic effect. The treatment using this frequency can be repeated again if the condition recurs but this is necessary only in a relatively small number of cases. The intermittent dosage of the Ivermectin provides the benefit of a lower amount of Ivermectin use and thereby lowers the possibility of adverse effects.
In another embodiment, a subject with anterior and posterior blepharitis is identified and the existing symptoms and signs noted. The pharmaceutical composition is applied by the practitioner using for example, slit lamp magnification to accurately identify the areas on the eyelid margin where the pharmaceutical composition is to be applied. A topical anaesthetic drop is applied in the lower conjunctival sac of the eye 5 to 10 minutes prior. Temporary anaesthetization will attenuate the lacrimal reflex thereby minimizing the production of tear fluid during the application process.
The pharmaceutical composition is applied as a film precisely along the length of the lid margin with the applicator just covering the openings of the Meibomian glands but taking care as to not further extend the composition into the mucosal surface. The pharmaceutical composition is extended proximally to cover the lash roots and the skin area in between. The lid is held reflected away from the eyeball until the pharmaceutical composition sets and dries in place. The pharmaceutical composition takes the form of an adhesive film or coating on the lid margin. This procedure is repeated for all the 4 eyelid margins. The administration of the pharmaceutical composition results in enhanced meibum production.
A clinic based application of topical Ivermectin for the treatment of inflammatory blepharitis has been successful; both for cases where Demodex species were not isolated which constituted the majority of cases of Blepharitis treated, and the smaller number of cases where Demodex species were isolated. Most of these were cases with longstanding disease which had been unresponsive to a wide range of currently accepted treatment modalities. More than 95% had full relief of symptoms and a remarkable reduction in signs of inflammation of the lid margins. 87% of the cases required only 1 treatment cycle for marked improvement or complete remission of symptoms.

For data set [2] the following is noted: oral, cited from earlier work.

Consider “mixture containing 5-O-demethyl-22,23-dihydroavermectin A1a and 5-O-demethyl-25-de(1-methylpropyl)-25-(1-methylethyl)-22,23 dihydroavermectin A1a [Ivermectin]”, for which the “cases that required only 1 treatment cycle for marked improvement or complete remission of symptoms” value in data set [1] (topical application to lid margins) turned out to be 87%. The “cases with full relief of symptoms and a remarkable reduction in signs of inflammation of the lid margins” value in data set [1] (topical application to lid margins, cases with and without Demodex isolated, mostly longstanding disease unresponsive to accepted treatments) is reported as “More than 95%”. Besides, the “Meibomian gland orifices and secretions after treatment” value in data set [1] (topical application, a significant number of cases) was “re-opening of previously closed Meibomian gland orifices”. The “overall outcome of treatment of inflammatory blepharitis” value in data set [1] (topical application, cases with and without Demodex species isolated) is given as “successful”. Besides, the “dry eye symptoms after treatment” value in data set [1] (topical application, majority of the cases where dry eye symptoms were present) is listed as “remarkable improvement”. Further, the “adverse effect at high doses” value in data set [2] (high doses) was “paralysis”. Also, the safety profile entry in data set [2] is listed as “good safety profile”.
